pEC50: −log10 of the molar value.
Molecular target: human APJ receptor (Homo sapiens (Human), UniProt P35414)
Experiment: [35S]GTPγS binding assay on membranes from CHO cells stably expressing human APJ receptor
Format: biochemical
Settings: read-out: Activity hAPJ SPA EC50 IP
Protocol: The human APJ receptor was cloned by polymerase chain reaction and the gene encoding the receptor was subcloned in pFLAG-CMV™-3 expression vector (Sigma, Saint Louis, Mo. USA) in-house at Amgen. A GTPγS binding assay was performed on membranes prepared from CHO cells stably expressing human APJ receptor. The optimum experimental conditions for the concentrations of GDP, MgCl2, and NaCl in the assay buffer were initially determined. The assay was performed in assay buffer [20 mM HEPES, pH 7.5, 5 mM MgCl2, and 0.1% (w/v) BSA with 200 mM NaCl, 3 μM GDP] and membranes expressing human APJ receptor/well along with WGA PS beads. The reaction was initiated by addition of 0.2 nM [^35S]GTPγS (Perkin Elmer Life and Analytical Sciences, Waltham USA) in the absence or presence of various ligands and incubated at RT for 90 min. Nonspecific binding was determined in the presence of 100 μM GTPγS and was always less than 0.2% of total binding. All the results presented are means of several independent experiments and analyzed by non-linear regression methods using commercially available program Prism (GraphPad, San Diego, Calif.) to obtain EC50 detailed in Table 38.

human APJ receptor, sequence (P35414 whole entry): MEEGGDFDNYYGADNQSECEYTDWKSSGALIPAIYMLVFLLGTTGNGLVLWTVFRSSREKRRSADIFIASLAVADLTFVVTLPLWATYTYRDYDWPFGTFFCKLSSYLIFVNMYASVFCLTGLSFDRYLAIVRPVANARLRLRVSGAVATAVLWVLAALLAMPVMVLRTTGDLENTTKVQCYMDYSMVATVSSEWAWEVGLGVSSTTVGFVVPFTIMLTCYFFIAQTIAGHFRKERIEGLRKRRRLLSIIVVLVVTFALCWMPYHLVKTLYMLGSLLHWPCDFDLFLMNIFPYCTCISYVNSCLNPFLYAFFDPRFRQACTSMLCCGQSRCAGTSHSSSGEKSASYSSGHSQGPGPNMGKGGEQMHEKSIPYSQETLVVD

Compound | pEC50
CO[C@H](c1ncc(Cl)cn1)[C@H](C)S(=O)(=O)Nc1nnc([C@@H]2COCCO2)n1C1CCOCC1 (single isomer, unassigned) [Example 248.0, (1R,2S)-1-(5-chloro-2-pyrimidinyl)-N-(5-((2R)-1,4-dioxan-2-yl)-4-(tetrahydro-2H-pyran-4-yl)-4H-1,2,4-triazol-3-yl)-1-methoxy-2-propanesulfonamide or (1R,2S)-1-(5-chloro-2-pyrimidinyl)-N-(5-((2S)-1,4-dioxan-2-yl)-4-(tetrahydro-2H-pyran-4-yl)-4H-1,2,4-triazol-3-yl)-1-methoxy-2-propanesulfonamide] | 9.24
COc1cccc(OC)c1-n1c(NS(=O)(=O)[C@@H](C)[C@H](C)c2ncc(C#N)cn2)nnc1[C@H]1CCOC1 (single isomer, unassigned) [Example 173.0, (2S,3R)-3-(5-cyano-2-pyrimidin-yl)-N-(4-(2,6-dimethoxyphenyl)-5-((3R)-tetrahydro-3-furanyl)-4H-1,2,4-triazol-3-yl)-2-butanesulfonamide or (2S,3R)-3-(5-cyano-2-pyrimidinyl)-N-(4-(2,6-dimethoxyphenyl)-5-((3S)-tetrahydro-3-furanyl)-4H-1,2,4-triazol-3-yl)-2-butanesulfonamide] | 6.89
COc1cnc([C@@H](C)[C@H](C)S(=O)(=O)Nc2nnc([C@@H]3COCCO3)n2-c2c(OC)cccc2OC)nc1 (single isomer, unassigned) [Example 175.0, (2S,3R)-N-(4-(2,6-dimethoxyphenyl)-5-((2R)-1,4-dioxan-2-yl)-4H-1,2,4-triazol-3-yl)-3-(5-methoxy-2-pyrimidinyl)-2-butanesulfonamide or (2S,3R)-N-(4-(2,6-dimethoxyphenyl)-5-((2S)-1,4-dioxan-2-yl)-4H-1,2,4-triazol-3-yl)-3-(5-methoxy-2-pyrimidinyl)-2-butanesulfonamide] | 8.46
(1R,2S)-N-(4-(4,6-dimethoxypyrimidin-5-yl)-5-((S)-tetrahydrofuran-2-yl)-4H-1,2,4-triazol-3-yl)-1-methoxy-1-(5-methylpyrazin-2-yl)propane-2-sulfonamide or (1R,2S)-N-(4-(4,6-dimethoxypyrimidin-5-yl)-5-((R)-tetrahydrofuran-2-yl)-4H-1,2,4-triazol-3-yl)-1-methoxy-1-(5-methylpyrazin-2-yl)propane-2-sulfonamide [Example 186.0] | 7.10
(2S,3R)-3-(5-chloro-2-pyrimidinyl)-N-(4-(1,3-dimethoxy-2-propanyl)-5-((2R,5R)-5-methyltetrahydro-2-furanyl)-4H-1,2,4-triazol-3-yl)-2-butanesulfonamide or (2S,3R)-3-(5-chloro-2-pyrimidinyl)-N-(4-(1,3-dimethoxy-2-propanyl)-5-((2S,5S)-5-methyltetrahydro-2-furanyl)-4H-1,2,4-triazol-3-yl)-2-butanesulfonamide [Example 374.0] | 8.25
COc1cccc(OC)c1-n1c(NS(=O)(=O)[C@@H](C)[C@H](OC)c2ncc(Cl)cn2)nnc1[C@H]1CCC(=O)N1C (single isomer, unassigned) [Example 405.0, (1R,2S)-1-(5-chloropyrimidin-2-yl)-N-(4-(2,6-dimethoxyphenyl)-5-((R)-1-methyl-5-oxopyrrolidin-2-yl)-4H-1,2,4-triazol-3-yl)-1-methoxypropane-2-sulfonamide or (1R,2S)-1-(5-chloropyrimidin-2-yl)-N-(4-(2,6-dimethoxyphenyl)-5-((S)-1-methyl-5-oxopyrrolidin-2-yl)-4H-1,2,4-triazol-3-yl)-1-methoxypropane-2-sulfonamide] | 5.76
(2S,3R)-N-(4-(2,6-difluorophenyl)-5-((3S)-tetrahydro-2H-pyran-3-yl)-4H-1,2,4-triazol-3-yl)-3-(5-methyl-2-pyrimidinyl)-2-butanesulfonamide or (2S,3R)-N-(4-(2,6-difluorophenyl)-5-((3R)-tetrahydro-2H-pyran-3-yl)-4H-1,2,4-triazol-3-yl)-3-(5-methyl-2-pyrimidinyl)-2-butanesulfonamide [Example 22.0] | 6.59
Cc1cnc([C@@H](C)[C@H](C)S(=O)(=O)Nc2nnc([C@H]3CCCO3)n2-c2c(F)cccc2F)nc1 [Example 19.0, (2S,3R)-N-(4-(2,6-difluorophenyl)-5-((2R)-tetrahydro-2-furanyl)-4H-1,2,4-triazol-3-yl)-3-(5-methyl-2-pyrimidinyl)-2-butanesulfonamide] | 7.22
COc1cccc(OC)c1-n1c(NS(=O)(=O)[C@@H](C)[C@H](OC)c2ncc(Cl)cn2)nnc1[C@@H]1CC(=O)N(C)C1 (single isomer, unassigned) [Example 294.0, (1R,2S)-1-(5-chloropyrimidin-2-yl)-N-(4-(2,6-dimethoxyphenyl)-5-((R)-1-methyl-5-oxopyrrolidin-3-yl)-4H-1,2,4-triazol-3-yl)-1-methoxypropane-2-sulfonamide or (1R,2S)-1-(5-chloropyrimidin-2-yl)-N-(4-(2,6-dimethoxyphenyl)-5-((S)-1-methyl-5-oxopyrrolidin-3-yl)-4H-1,2,4-triazol-3-yl)-1-methoxypropane-2-sulfonamide] | 6.57
(2S,3R)-3-(5-chloropyrimidin-2-yl)-N-(4-(4,6-dimethoxypyrimidin-5-yl)-5-((R)-5,5-dimethyltetrahydrofuran-3-yl)-4H-1,2,4-triazol-3-yl)butane-2-sulfonamide or (2S,3R)-3-(5-chloropyrimidin-2-yl)-N-(4-(4,6-dimethoxypyrimidin-5-yl)-5-((S)-5,5-dimethyltetrahydrofuran-3-yl)-4H-1,2,4-triazol-3-yl)butane-2-sulfonamide [Example 317.0] | 7.28
(1S,2S)-N-(4-(4,6-dimethoxypyrimidin-5-yl)-5-((R)-tetrahydrofuran-3-yl)-4H-1,2,4-triazol-3-yl)-1-(5-fluoropyrimidin-2-yl)-1-isopropoxypropane-2-sulfonamide or (1S,2S)-N-(4-(4,6-dimethoxypyrimidin-5-yl)-5-((S)-tetrahydrofuran-3-yl)-4H-1,2,4-triazol-3-yl)-1-(5-fluoropyrimidin-2-yl)-1-isopropoxypropane-2-sulfonamide [Example 322.0] | 6.51
(2S,3R)-N-(4-(2,6-difluorophenyl)-5-((3R)-tetrahydro-3-furanyl)-4H-1,2,4-triazol-3-yl)-3-(5-methyl-2-pyrimidinyl)-2-butanesulfonamide or (2S,3R)-N-(4-(2,6-difluorophenyl)-5-((3S)-tetrahydro-3-furanyl)-4H-1,2,4-triazol-3-yl)-3-(5-methyl-2-pyrimidinyl)-2-butanesulfonamide [Example 21.0] | 6.96
(1R,2S)-N-(4-(4,6-dimethoxypyrimidin-5-yl)-5-((S)-tetrahydrofuran-2-yl)-4H-1,2,4-triazol-3-yl)-1-methoxy-1-(5-methylpyrazin-2-yl)propane-2-sulfonamide or (1R,2S)-N-(4-(4,6-dimethoxypyrimidin-5-yl)-5-((R)-tetrahydrofuran-2-yl)-4H-1,2,4-triazol-3-yl)-1-methoxy-1-(5-methylpyrazin-2-yl)propane-2-sulfonamide [Example 185.0] | 6.29
(1S,2S)-N-(4-(1,3-dimethoxy-2-propanyl)-5-((2R,5R)-5-methyltetrahydro-2-furanyl)-4H-1,2,4-triazol-3-yl)-1-(5-methyl-2-pyridinyl)-1-(2-propanyloxy)-2-propanesulfonamide or (1S,2S)-N-(4-(1,3-dimethoxy-2-propanyl)-5-((2S,5S)-5-methyltetrahydro-2-furanyl)-4H-1,2,4-triazol-3-yl)-1-(5-methyl-2-pyridinyl)-1-(2-propanyloxy)-2-propanesulfonamide [Example 367.0] | 7.92
(1R,2)S-N-(4-(2,6-dimethoxyphenyl)-5-((R)-1,4-dioxan-2-yl)-4H-1,2,4-triazol-3-yl)-1-methoxy-1-(5-methylpyrimidin-2-yl)propane-2-sulfonamide or (1R,2S)-N-(4-(2,6-dimethoxyphenyl)-5-((S)-1,4-dioxan-2-yl)-4H-1,2,4-triazol-3-yl)-1-methoxy-1-(5-methylpyrimidin-2-yl)propane-2-sulfonamide [Example 201.0] | 7.51
CO[C@H](c1ncc(Cl)cn1)[C@H](C)S(=O)(=O)Nc1nnc([C@H]2CCCO2)n1C1(C)CC1 (single isomer, unassigned) [Example 111.0, (1R,2S)-1-(5-chloropyrimidin-2-yl)-1-methoxy-N-(4-(1-methylcyclopropyl)-5-((S)-tetrahydrofuran-2-yl)-4H-1,2,4-triazol-3-yl)propane-2-sulfonamide or (1R,2S)-1-(5-chloropyrimidin-2-yl)-1-methoxy-N-(4-(1-methylcyclopropyl)-5-((R)-tetrahydrofuran-2-yl)-4H-1,2,4-triazol-3-yl)propane-2-sulfonamide] | 6.62
(2S,3R)-N-(4-(2,6-bis((tridutero)methyloxy)phenyl)-5-((3R)-tetrahydro-3-furanyl)-4H-1,2,4-triazol-3-yl)-3-(5-chloro-2-pyrimidinyl)-2-butanesulfonamide or (2S,3R)-N-(4-(2,6-bis((trideutero)methyloxy)phenyl)-5-((3S)-tetrahydro-3-furanyl)-4H-1,2,4-triazol-3-yl)-3-(5-chloro-2-pyrimidinyl)-2-butanesulfonamide [Example 392.0] | 7.60

— patent US10150760B2, “Compounds for use in preparing heterocyclic triazole agonists of the APJ receptor” (AMGEN INC., priority 2016, dated 2018)
